# Results published in the NIST ThermoML archive (doi:10.1021/je901020a).
# ± gives the expanded uncertainty stated by the source.
# Experiments:
# [1] = refractive index (Na D-line) (dimensionless); xn = mol fraction of the nth substance listed; details: 101 kPa, Liquid, Standard Abbe refractometry
# [2] = xn = mol fraction of the nth substance listed; details: 101 kPa, Liquid; for speed of sound: Pulse-echo method
smiles,measurement,setting,value
"Cc1ccccc1C [1,2-dimethylbenzene] + C1CCCC1",refractive index,"[1]; 298.15 K, x2 = 0",1.50262 ± 0.001
same,refractive index,"[1]; 313.15 K, x2 = 0",1.49466 ± 0.001
same,speed of sound,"[2]; 298.15 K, x2 = 0",1350 ± 2 m/s
same,mass density,"[2]; 298.15 K, x2 = 0",875.4 ± 0.5 kg/m3
same,speed of sound,"[2]; 313.15 K, x2 = 0",1290 ± 2 m/s
same,mass density,"[2]; 313.15 K, x2 = 0",862.9 ± 0.5 kg/m3
C1CCCC1 [cyclopentane] + Cc1ccc(C)cc1,refractive index,"[1]; 298.15 K, x1 = 0.0462",1.49015 ± 0.0011
same,refractive index,"[1]; 298.15 K, x1 = 0.0885",1.48707 ± 0.0011
same,refractive index,"[1]; 298.15 K, x1 = 0.1848",1.48001 ± 0.0011
same,refractive index,"[1]; 298.15 K, x1 = 0.2886",1.47236 ± 0.0011
same,refractive index,"[1]; 298.15 K, x1 = 0.3869",1.46445 ± 0.0011
same,refractive index,"[1]; 298.15 K, x1 = 0.4744",1.45737 ± 0.0011
same,refractive index,"[1]; 298.15 K, x1 = 0.5886",1.44669 ± 0.0011
same,refractive index,"[1]; 298.15 K, x1 = 0.6913",1.4372 ± 0.0011
same,refractive index,"[1]; 298.15 K, x1 = 0.7923",1.42618 ± 0.0011
same,refractive index,"[1]; 298.15 K, x1 = 0.8935",1.41575 ± 0.0011
same,refractive index,"[1]; 298.15 K, x1 = 0.9471",1.40916 ± 0.0011
same,refractive index,"[1]; 298.15 K, x1 = 1",1.40292 ± 0.001
same,refractive index,"[1]; 313.15 K, x1 = 0.0443",1.48224 ± 0.001
same,refractive index,"[1]; 313.15 K, x1 = 0.0981",1.47862 ± 0.001
same,refractive index,"[1]; 313.15 K, x1 = 0.2012",1.47117 ± 0.00099
same,refractive index,"[1]; 313.15 K, x1 = 0.2998",1.46343 ± 0.00095
same,refractive index,"[1]; 313.15 K, x1 = 0.3542",1.4589 ± 0.00092
same,refractive index,"[1]; 313.15 K, x1 = 0.4799",1.44816 ± 0.00089
same,refractive index,"[1]; 313.15 K, x1 = 0.6021",1.43702 ± 0.00087
same,refractive index,"[1]; 313.15 K, x1 = 0.703",1.42761 ± 0.0009
same,refractive index,"[1]; 313.15 K, x1 = 0.8072",1.41693 ± 0.0011
same,refractive index,"[1]; 313.15 K, x1 = 0.909",1.4057 ± 0.0014
same,refractive index,"[1]; 313.15 K, x1 = 0.9601",1.39936 ± 0.0018
same,refractive index,"[1]; 313.15 K, x1 = 1",1.39456 ± 0.001
same,speed of sound,"[2]; 298.15 K, x1 = 0.0462",1305 ± 2 m/s
same,speed of sound,"[2]; 298.15 K, x1 = 0.0885",1300 ± 2 m/s
same,speed of sound,"[2]; 298.15 K, x1 = 0.1848",1289 ± 2 m/s
same,speed of sound,"[2]; 298.15 K, x1 = 0.2886",1277 ± 2 m/s
same,speed of sound,"[2]; 298.15 K, x1 = 0.3869",1266 ± 2 m/s
same,speed of sound,"[2]; 298.15 K, x1 = 0.4744",1256 ± 2 m/s
same,speed of sound,"[2]; 298.15 K, x1 = 0.5886",1244 ± 2 m/s
same,speed of sound,"[2]; 298.15 K, x1 = 0.6913",1233 ± 2 m/s
same,speed of sound,"[2]; 298.15 K, x1 = 0.7923",1223 ± 2 m/s
same,speed of sound,"[2]; 298.15 K, x1 = 0.8935",1213 ± 2 m/s
same,speed of sound,"[2]; 298.15 K, x1 = 0.9471",1208 ± 2 m/s
same,speed of sound,"[2]; 298.15 K, x1 = 1",1204 ± 2 m/s
same,mass density,"[2]; 298.15 K, x1 = 0.0462",852.5 ± 0.5 kg/m3
same,mass density,"[2]; 298.15 K, x1 = 0.0885",848.7 ± 0.5 kg/m3
same,mass density,"[2]; 298.15 K, x1 = 0.1848",839.6 ± 0.5 kg/m3
same,mass density,"[2]; 298.15 K, x1 = 0.2886",829.3 ± 0.5 kg/m3
same,mass density,"[2]; 298.15 K, x1 = 0.3869",818.8 ± 0.5 kg/m3
same,mass density,"[2]; 298.15 K, x1 = 0.4744",809 ± 0.6 kg/m3
same,mass density,"[2]; 298.15 K, x1 = 0.5886",795.1 ± 0.6 kg/m3
same,mass density,"[2]; 298.15 K, x1 = 0.6913",782.2 ± 0.6 kg/m3
same,mass density,"[2]; 298.15 K, x1 = 0.7923",768.9 ± 0.6 kg/m3
same,mass density,"[2]; 298.15 K, x1 = 0.8935",755 ± 0.6 kg/m3
same,mass density,"[2]; 298.15 K, x1 = 0.9471",747.4 ± 0.6 kg/m3
same,mass density,"[2]; 298.15 K, x1 = 1",740 ± 0.6 kg/m3
same,speed of sound,"[2]; 313.15 K, x1 = 0.0443",1243 ± 2 m/s
same,speed of sound,"[2]; 313.15 K, x1 = 0.0981",1236 ± 2 m/s
same,speed of sound,"[2]; 313.15 K, x1 = 0.2012",1224 ± 2 m/s
same,speed of sound,"[2]; 313.15 K, x1 = 0.2998",1211 ± 2 m/s
same,speed of sound,"[2]; 313.15 K, x1 = 0.3542",1204 ± 2 m/s
same,speed of sound,"[2]; 313.15 K, x1 = 0.4799",1189 ± 2 m/s
same,speed of sound,"[2]; 313.15 K, x1 = 0.6021",1173 ± 2 m/s
same,speed of sound,"[2]; 313.15 K, x1 = 0.703",1161 ± 2 m/s
same,speed of sound,"[2]; 313.15 K, x1 = 0.8072",1149 ± 2 m/s
same,speed of sound,"[2]; 313.15 K, x1 = 0.909",1138 ± 2 m/s
same,speed of sound,"[2]; 313.15 K, x1 = 0.9601",1133 ± 2 m/s
same,speed of sound,"[2]; 313.15 K, x1 = 1",1130 ± 2 m/s
same,mass density,"[2]; 313.15 K, x1 = 0.0443",839.7 ± 0.5 kg/m3
same,mass density,"[2]; 313.15 K, x1 = 0.0981",834.8 ± 0.5 kg/m3
same,mass density,"[2]; 313.15 K, x1 = 0.2012",824.7 ± 0.5 kg/m3
same,mass density,"[2]; 313.15 K, x1 = 0.2998",814.5 ± 0.5 kg/m3
same,mass density,"[2]; 313.15 K, x1 = 0.3542",808.5 ± 0.6 kg/m3
same,mass density,"[2]; 313.15 K, x1 = 0.4799",794.3 ± 0.6 kg/m3
same,mass density,"[2]; 313.15 K, x1 = 0.6021",779.4 ± 0.6 kg/m3
same,mass density,"[2]; 313.15 K, x1 = 0.703",766.4 ± 0.6 kg/m3
same,mass density,"[2]; 313.15 K, x1 = 0.8072",752.3 ± 0.6 kg/m3
same,mass density,"[2]; 313.15 K, x1 = 0.909",737.9 ± 0.6 kg/m3
same,mass density,"[2]; 313.15 K, x1 = 0.9601",730.6 ± 0.7 kg/m3
same,mass density,"[2]; 313.15 K, x1 = 1",725 ± 0.7 kg/m3
C1CCCCC1 [cyclohexane] + Cc1cc(C)cc(C)c1,refractive index,"[1]; 298.15 K, x1 = 1",1.4236 ± 0.00064
same,refractive index,"[1]; 313.15 K, x1 = 1",1.41516 ± 0.00064
same,speed of sound,"[2]; 298.15 K, x1 = 1",1255 ± 2 m/s
same,mass density,"[2]; 298.15 K, x1 = 1",773.9 ± 0.5 kg/m3
same,speed of sound,"[2]; 313.15 K, x1 = 1",1182 ± 2 m/s
same,mass density,"[2]; 313.15 K, x1 = 1",759.6 ± 0.5 kg/m3
C1CCCCC1 [cyclohexane] + Cc1ccccc1C,refractive index,"[1]; 298.15 K, x1 = 1",1.4236 ± 0.00064
same,refractive index,"[1]; 313.15 K, x1 = 1",1.41516 ± 0.00064
same,speed of sound,"[2]; 298.15 K, x1 = 1",1255 ± 2 m/s
same,mass density,"[2]; 298.15 K, x1 = 1",773.9 ± 0.5 kg/m3
same,speed of sound,"[2]; 313.15 K, x1 = 1",1182 ± 2 m/s
same,mass density,"[2]; 313.15 K, x1 = 1",759.6 ± 0.5 kg/m3
C1CCCCC1 [cyclohexane] + Cc1cccc(C)c1,refractive index,"[1]; 298.15 K, x1 = 1",1.4236 ± 0.00064
same,refractive index,"[1]; 313.15 K, x1 = 1",1.41516 ± 0.00064
same,speed of sound,"[2]; 298.15 K, x1 = 1",1255 ± 2 m/s
same,mass density,"[2]; 298.15 K, x1 = 1",773.9 ± 0.5 kg/m3
same,speed of sound,"[2]; 313.15 K, x1 = 1",1182 ± 2 m/s
same,mass density,"[2]; 313.15 K, x1 = 1",759.59 ± 0.5 kg/m3
